Type: physicochemical
Conditions: temperature in which 50 mg of substance is dissolved in 1 ml of a 1:4 benzyl benzoate/castor oil mixture; lower temperature = better solubility

Compound | Solubility
CC(C)(C)CC(=O)OC/C=C\[C@]1(O)CC[C@H]2[C@@H]3CCC4=CC(=O)CC[C@@]45Cc4cc(-c6ccc(C#N)cc6)ccc4[C@@H](C[C@@]21C)[C@@H]35 [Example 7, (Z)-6′-(4-Cyanophenyl)-9,11α-dihydro-17α-[3-(3,3-dimethyl-1-oxobutoxy)-1-propenyl]-17β-hydroxy-4′H-naphtho[3′,2′,1′:10,9,11]estr-4-en-3-one] | 23 °C
COC(=O)CCC(=O)OCC=CC1(O)CCC2C3CCC4=CC(=O)CCC45Cc4cc(-c6ccc(C#N)cc6)ccc4C(CC21C)C35 (stereo not drawn) [Example 9, (Z)-6′-(4-Cyanophenyl)-9,11α-dihydro-17α-[3-(1,4-dioxo-4-methoxybutoxy)-1-propenyl]-17β-hydroxy-4′H-naphtho[3′,2′,1′:10,9,11]estr-4-en-3-one] | 50 °C
CC12CC3c4ccc(-c5ccc(C#N)cc5)cc4CC45CCC(=O)C=C4CCC(C35)C1CCC2(O)C=CCOC(=O)CN (stereo not drawn) [Example 12, (Z)-17α-[3-[(Aminoacetyl)oxy]-1-propenyl]-6′-(4-cyanophenyl)-9,11α-dihydro-17β-hydroxy-4′H-naphtho[3′,2′,1′:10,9,11]estr-4-en-3-one] | 100 °C
CCCCCCC(=O)OCC=CC1(O)CCC2C3CCC4=CC(=O)CCC45Cc4cc(-c6cccnc6)ccc4C(CC21C)C35 (stereo not drawn) [Example 20, (Z)-9,11α-Dihydro-17βhydroxy-17α-[3-[(1-oxoheptyl)oxy]-1-propenyl]-6′-(3-pyridinyl)-4′H-naphtho[3′,2′,1′:10,9,11]estr-4-en-3-one] | 50 °C
CC(C)[C@H](NC(=O)OC(C)(C)C)C(=O)OCCC[C@@]1(O)CC[C@H]2[C@@H]3CCC4=CC(=O)CCC4=C3[C@@H](c3ccc(N(C)C)cc3)C[C@]21C [Example 29, (S)-11β-[4-(Dimethylamino)phenyl]-17α-[3-[2-[[(1,1-dimethylethoxy)-carbonyl]amino]-3-methyl-1-oxobutoxy]-1-propyl]-17α-hydroxy-13α-estra-4,9-dien-3-one] | 23 °C
C[C@H](N)C(=O)OC/C=C\[C@]1(O)CC[C@H]2[C@@H]3CCC4=CC(=O)CC[C@@H]4[C@H]3[C@@H](c3ccc(N(C)C)cc3)C[C@@]21C [Example 30, [S-(Z)]-17α-[3-(2-Amino-1-oxopropoxy)-1-propenyl]-11β-[4-(dimethylamino)phenyl]-17βhydroxyestr-4-en-3-one] | 50 °C
CC(NC(=O)OC(C)(C)C)C(=O)OCC=CC1(O)CCC2C3CCC4=CC(=O)CCC4C3C(c3ccc(N(C)C)cc3)CC21C (stereo not drawn) [Example 31, [S-(Z)]-11β-[4-(Dimethylamino)phenyl]-17α-[3-[2-[[(1,1-dimethylethoxy)carbonyl]amino]-1-oxopropoxy]-1-propenyl]-17β-hydroxyestr-4-en-3-one] | 23 °C
CC(C)C(NC(=O)OC(C)(C)C)C(=O)OCC=CC1(O)CCC2C3CCC4=CC(=O)CCC4C3C(c3ccc(N(C)C)cc3)CC21C (stereo not drawn) [Example 32, [S-(Z)]-11β-[4-(Dimethylamino)phenyl]-17α-[3-[2-[(1,1-dimethylethoxy)carbonyl]amino]-3-methyl-1-oxobutoxyl]-1-propenyl]-17β-hydroxyestr-4-en-3-one] | 23 °C
CC(NC(=O)OC(C)(C)C)C(=O)OCC=CC1(O)CCC2C3CCC4=CC(=O)CCC4C3C(c3ccc(-c4ccc(C#N)cc4)cc3)CC21C (stereo not drawn) [Example 33, [S-(z)]-4′-[17α-[3-[2-[[(1,1-Dimethylethoxy)carbonyl]amino]-1-oxopropoxy]-1-propenyl]-17β-hydroxy-3-oxoestr-4-en-11β-yl][1,1′-biphenyl]-4-carbonitrile] | 50 °C
CC(C)C(NC(=O)OC(C)(C)C)C(=O)OCC=CC1(O)CCC2C3CCC4=CC(=O)CCC4C3C(c3ccc(-c4ccc(C#N)cc4)cc3)CC21C (stereo not drawn) [Example 34, [S-(Z)]-4′-[17α-[3-[2-[[(1,1-Dimethylethoxy)carbonyl]amino]-3-methyl-1-oxobutoxy]-1-propenyl]-17β-hydroxy-3-oxoestr-4-en-11β-yl][1,1′-biphenyl]-4-carbonitrile] | 50 °C
CN(C)c1ccc(C2CC3(C)C(CCC3(O)C=CCOC(=O)CNC(=O)OC(C)(C)C)C3CCC4=CC(=O)CCC4C23)cc1 (stereo not drawn) [Example 37, [S-(Z)]-11β-[4-(Dimethylamino)phenyl]-17α-[3-[[[(1,1-dimethylethoxy)carbonyl]amino]acetyloxy]-1-propenyl]-17β-hydroxyestr-4-en-3-one] | 23 °C
CC(C)(C)OC(=O)NCC(=O)OCC=CC1(O)CCC2C3CCC4=CC(=O)CCC4C3C(c3ccc(-c4ccc(C#N)cc4)cc3)CC21C (stereo not drawn) [Example 38, [S-(Z)]-4′-[17α-[3-[[[(1,1-Dimethylethoxy)carbonyl]-amino]acetyloxy]-1-propenyl]-17β-hydroxy-3-oxoestr-4-en-11β-yl][1,1′-biphenyl]-4-carbonitrile] | 23 °C
CC(C)C(N)C(=O)OCC=CC1(O)CCC2C3CCC4=CC(=O)CCC4C3C(c3ccc(-c4ccc(C#N)cc4)cc3)CC21C (stereo not drawn) [Example 39, [S-(Z)]-4′-[17α-[3-[2-Amino-3-methyl-1-oxobutoxy]-1-propenyl]-17β-hydroxy-3-oxoestr-4-en-11β-yl][1,1′-biphenyl]-4-carbonitrile] | 50 °C
CC12CC3c4ccc(-c5ccc(C#N)cc5)cc4CC45CCC(=O)C=C4CCC(C35)C1CCC2(O)C=CCO (stereo not drawn) [Ref. 1, (Z)-6′-(4-cyanophenyl)-9,11α-dihydro-17β-hydroxy-17α-(3-hydroxy-1-propenyl)-4′H-naphtho[3′,2′,1′:10,9,11]estr-4-en-3-one, reference compound] | >>100 °C
(S)-6′-(4-Fluorophanyl)-9,11α-dihydro-17α-[3-[2-[[(1,1-dimethylethoxy) carbonyl]amino]-1-oxopropoxy]-1-propyl]-17β-hydroxy-4′H-naphtho[3′,2′,1′:10,9,11]estr-4-on-3-one [Example 43] | 23 °C
(S)-6′-(4-Fluorophanyl)-9,11α-dihydro-17α-[3-[2-[[(1,1-dimethylethoxy)carbonyl]amino]-1-oxopropoxy]-1-propinyl]-17β-hydroxy-4′H-naphtho[3′,2′,1′;10,9,11]estr-4-en-3-one [Example 42] | 23 °C
(Z)-6′-(4-Cyanophenyl)-9,11α-dihydro-17α-[3-(1,4-dioxo-4-ethoxybutoxy)-1-propenyl]-17β-hydroxy-4′H-naphtho[3′,2′,1′:10,9,11]estr-4-en-3-one [Example 10] | 50 °C
(Z)-6′-(4-Cyanophenyl)-9,11α-dihydro-17α-[3-[[[[(1,1-dimethylethoxy)carbonyl]-amino]acetyl]oxy]-1-propenyl]-17βhydroxy-4′H-naphtho[3′,2′,1′:10,9,11]estr-4-en-3-one [Example 13] | 50 °C
(Z)-6′-(4-Cyanophenyl)-9,11α-dihydro-17α-hydroxy-17α-[3-[(1-oxododecyl)oxy]-1-propenyl]-4′H-naphtho[3′,2′,1′:10,9,11]estr-4-en-3-one [Example 5] | 23 °C

Other lines, results leading:

Solubility | Compound
23 °C | 6′-(4-Fluorophenyl)-17α-(3-hydroxypropyl)-9,11α-dihydro-17β-hydroxy-4′H-naphtho[3′,2′,1′:10,9,11]estr-4-en-3-one [Ref. 6, reference compound]
23 °C | 6′-(4-Fluorophonyl)-17α-(3-hydroxyprop-1-inyl)-9,11α-dihydro-17β-hydroxy-4′H-naphtho[3′,2′,1′:10,9,11]estr-4-on-3-one [Ref. 5, reference compound]
100 °C | CC(C)C(=O)OC/C=C\[C@]1(O)CC[C@H]2[C@@H]3CCC4=CC(=O)CC[C@@]45Cc4cc(-c6ccc(C#N)cc6)ccc4[C@@H](C[C@@]21C)[C@@H]35 [Example 6, (Z)-6′-(4-Cyanophenyl)-9,11α-dihydro-17β-hydroxy-17α-[3-(1-oxo-2-methylpropoxy)-1-propenyl]-4′H-naphtho[3′,2′,1′:10,9,11]estr-4-en-3-one]
100 °C | CCOCCC(=O)OCC=CC1(O)CCC2C3CCC4=CC(=O)CCC45Cc4cc(-c6ccc(C#N)cc6)ccc4C(CC21C)C35 (stereo not drawn) [Example 11, (Z)-6′-(4-Cyanophenyl)-9,11α-dihydro-17α-[3-(3-ethoxy-1-oxopropoxy)-1-propenyl]-17βhydroxy-4′H-naphtho[3′,2′,1′:10,9,11]estr-4-en-3-one]
23 °C | CC(N)C(=O)OCC=CC1(O)CCC2C3CCC4=CC(=O)CCC45Cc4cc(-c6ccc(C#N)cc6)ccc4C(CC21C)C35 (stereo not drawn) [Example 14, [S-(Z)]-17α-[3-(2-Amino-1-oxopropoxy)-1-propenyl]-6′-(4-cyanophenyl)-9,11α-dihydro-17β-hydroxy-4′H-naphtho [3′,2′,1′:10,9,11]estr-4-en-3-one]
23 °C | CC(NC(=O)OC(C)(C)C)C(=O)OCCCC1(O)CCC2C3CCC4=CC(=O)CCC4=C3C(c3ccc(N(C)C)cc3)CC21C [Example 27, (S)-11β-[4-(Dimethylamino)phenyl]-17β-[3-[2-[[(1,1-dimethylethoxy)-carbonyl]amino]-1-oxopropoxy]propyl]-17α-hydroxy-13α-estra-4,9-dien-3-one]
23 °C | CN(C)c1ccc(C2CC3(C)C(CCC3(O)CCCOC(=O)CNC(=O)OC(C)(C)C)C3CCC4=CC(=O)CCC4=C23)cc1 [Example 36, (S)-11β-[4-(Dimethylamino)phenyl]-17β-[3-[[[(1,1-dimethylethoxy)carbonyl]amino]acetyloxy]propyl]-17α-hydroxy-13α-estra-4,9-dien-3-one]
>>100 °C | C[C@]12C[C@@H]3c4ccc(-c5cccnc5)cc4C[C@]45CCC(=O)C=C4CC[C@H]([C@H]35)[C@@H]1CC[C@@]2(O)/C=C\CO [Ref. 2, (Z)-9,11α-dihydro-17β-hydroxy-17α-(3-hydroxy-1-propenyl)-6′-(3-pyridinyl)-4′H-naphtho[3′,2′,1′:10,9,11]estr-4-en-3-one, reference compound]
23 °C | (S-(Z)]-6′-(4-Cyanophenyl)-9,11α-dihydro-17α-[3-[2-[[(1,1-dimethylethoxy)carbonyl]amino]-1-oxopropoxy]-1-propenyl]-17β-hydroxy-4′H-naphtho[3′,2′,1′:10,9,11]estr-4-en-3-one [Example 15]
23 °C | (Z)-6′-(4-Cyanophenyl)-9,11α-dihydro-17β-hydroxy-17α-[3-[(1-oxoheptyl)oxy]-1-propenyl]-4′H-naphtho[3′,2′,1′:10,9,11]estr-4-en-3-one [Example 3]
